Test results from patent US20230365563A1, “QUINAZOLINE COMPOUND AND APPLICATION THEREOF” (SHANGHAI PHARMACEUTICALS HOLDING CO., LTD., priority 2020, published 2023).

Molecular target: T1, KRAS-G12D and SOS1 (Homo sapiens, UniProt P01116, G12D)
T1 construct: purchased
Experiment: Inhibition of KRAS-G12D/SOS1 binding (Cisbio binding kit, 665/615 ratio), Effect Embodiment A
Conditions: read-out: GTP-KRAS-G12D:SOS1 IC50
Procedure: Similarly, the first dilution point of the compound to be tested was its storage solution, and the solution was 3-fold diluted, with 11+0 points of dilution. Echo was used to transfer 0.2 μL gradient diluted solution of the compounds into a 384-well plate, with 2 duplicated wells for each compound, and the final concentration of DMSO was 1%. The solution was centrifuged for 1 min at 1000 rpm/min.
IC50 of the compounds was fitted by Graphpad Prism 8 nonlinear regression equation: […]
The IC50 (half inhibitory concentration) of the compound was obtained by using the following nonlinear fitting formula: […]

T1 sequence (P01116 1-188 isoform P01116-2 G12D): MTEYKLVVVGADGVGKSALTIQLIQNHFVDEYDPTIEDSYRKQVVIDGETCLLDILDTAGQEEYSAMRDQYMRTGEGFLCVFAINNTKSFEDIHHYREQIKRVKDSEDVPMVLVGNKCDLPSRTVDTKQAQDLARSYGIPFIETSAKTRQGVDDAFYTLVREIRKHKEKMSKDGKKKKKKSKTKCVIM

Structure (SMILES)	IC50 [µM]
CN(C)C1CN(c2nc(N3CCNCC3)c3cc(Cl)c(-c4cc(O)cc5ccccc45)c(F)c3n2)C1 (single isomer, unassigned) [Comparative embodiment b, reference compound]	83.4
CN(C)C1CN(c2nc(N3C[C@H]4CC[C@@H]3CN4)c3cc(Cl)c(-c4cc(O)cc5ccccc45)c(F)c3n2)C1 (single isomer, unassigned) [Compound 1a, (R or S)-4-(4-((1R,4R)-2,5-diazabicyclo[2.2.2]octan-2-yl)-6-chloro-2-(3-(dimethylamino)azetidin-1-yl)-8-fluoroquinazolin-7-yl)naphthalen-2-ol]	6.44
CN(C)C1CN(c2nc(N3C[C@@H]4CC[C@H]3CN4)c3cc(Cl)c(-c4cc(O)cc5ccccc45)c(F)c3n2)C1 (single isomer, unassigned) [Compound 4b, (S or R)-4-(4-((1S,4S)-2,5-diazabicyclo [2.2.2]octan-2-yl)-6-chloro-2-(3-(dimethylamino)azetidin-1-yl)-8-fluoro-quinazolin-7-yl)naphthalen-2-ol]	4.59
CN(C)C1CN(c2nc(N3CC4(CCNC4)C3)c3cc(Cl)c(-c4cc(O)cc5ccccc45)c(F)c3n2)C1 (single isomer, unassigned) [Compound 8b, (S or R)-4-(6-chloro-2-(3-(dimethylamino)azetidin-1-yl)-8-fluoro-4-(2,6-diazaspiro[3.4]octan-2-yl)quinazolin-7-yl)naphthalen-2-ol]	71
CN(C)C1CN(c2nc(N3CC(N(C)C)C3)c3cc(Cl)c(-c4cc(O)cc5ccccc45)c(F)c3n2)C1 (single isomer, unassigned) [Compound 9b, (S or R)-4-(6-chloro-2,4-bis(3-(dimethylamino)azetidin-1-yl)-8-fluoro-7-yl)naphthalen-2-ol]	> 200
CN(C)C1CN(c2nc(N3CC4(CCNCC4)C3)c3cc(Cl)c(-c4cc(O)cc5ccccc45)c(F)c3n2)C1 (single isomer, unassigned) [Compound 10b, (S or R)-4-(6-chloro-2-(3-(dimethylamino)azetidin-1-yl)-8-fluoro-4-(2,7-diazaspiro[3.5 5]nonan-2-yl)quinazolin-7-yl)naphthalen-2-ol]	65.1
CN(C)C1CN(c2nc(N3CCC4(CC3)CNC4)c3cc(Cl)c(-c4cc(O)cc5ccccc45)c(F)c3n2)C1 (single isomer, unassigned) [Compound 11a, (R or S)-4-(6-chloro-2-(3-(dimethylamino)azetidin-1-yl)-8-fluoro-4-(2,7-diazaspiro[3.5]nonan-7-yl)quinazolin-7-yl)naphthalen-2-ol]	1.53
CN(CCN)c1nc(N2CC(N(C)C)C2)nc2c(F)c(-c3cc(O)cc4ccccc34)c(Cl)cc12 (single isomer, unassigned) [Compound 15b, (S or R)-4-(4((2-aminoethyl) (methyl)-amino)-6-chloro-2-(3-(dimethylamino)azetidin-1-yl)-8-fluoroquinazolin-7-yl)naphthalen-2-ol]	52.7
CNCCN(C)c1nc(N2CC(N(C)C)C2)nc2c(F)c(-c3cc(O)cc4ccccc34)c(Cl)cc12 (single isomer, unassigned) [Compound 16b, (S or R)-4-(6-chloro-2-(3-(dimethylamino)azetidin-1-yl)-8-fluoro-4-(methyl(2-(methylamino)ethyl)amino)quinazolin-7-yl)naphthalen-2-ol]	83.4
CN(C)CCN(C)c1nc(N2CC(N(C)C)C2)nc2c(F)c(-c3cc(O)cc4ccccc34)c(Cl)cc12 (single isomer, unassigned) [Compound 17a, (R or S)-4-(6-chloro-2-(3-(dimethylamino)azetidin-1-yl)-4-((2-(dimethylamino)ethyl)(methyl)amino)-8-fluoro-quinazolin-7-yl)naphthalen-2-ol]	5.81
CN(C)C1CN(c2nc(NCCO)c3cc(Cl)c(-c4cc(O)cc5ccccc45)c(F)c3n2)C1 (single isomer, unassigned) [Compound 18b, (S or R)-4-(6-chloro-2-(3-(dimethylamino)azetidin-1-yl)-8-fluoro-4-((2-hydroxyethyl)amino)-quinazolin-7-yl)naphthalen-2-ol]	2.36
CN(C)C1CN(c2nc(C3CNC3)c3cc(Cl)c(-c4cc(O)cc5ccccc45)c(F)c3n2)C1 (single isomer, unassigned) [Compound 21a, (S or R)-4-(4-(azetidin-3-yl)-6-chloro-2-(3-(dimethylamino)azetidin-1-yl)-8-fluoroquinazolin-7-yl)naphthalen-2-ol bistrifluoroacetate]	1.28
CN(C)C1CN(c2nc(C3(C(N)=O)CNC3)c3cc(Cl)c(-c4cc(O)cc5ccccc45)c(F)c3n2)C1 (single isomer, unassigned) [Compound 22b, (R or S)-3-(6-chloro-2-(3-(dimethylamino)azetidin-1-yl)-8-fluoro-7-(3-hydroxynaphthalen-1-yl)quinazolin-4-yl)azetidin-3-carboxamide bistrifluoroacetate]	2.42
CN(C)C1CN(c2nc(NC3CC4CCCC(C3)N4)c3cc(Cl)c(-c4cc(O)cc5ccccc45)c(F)c3n2)C1 (single isomer, unassigned) [Compound 31, 4-((S or R)-4-(((1R,3R,5S)-9-azabicyclo[3.3.1]nonan-3-yl)amino)-6-chloro-2-(3-(dimethylamino)azetidin-1-yl)-8-fluoroquinazolin-7-yl)naphthalen-2-ol]	~69.7

The remaining lines, values ahead:

IC50 [µM]	Structure (SMILES)
31.9	CN(C)C1CN(c2nc(N3C[C@H]4CC[C@@H]3CN4)c3cc(Cl)c(-c4cc(O)cc5ccccc45)c(F)c3n2)C1 (single isomer, unassigned) [Compound 1b, (S or R)-4-(4-((1R,4R)-2,5-diazabicyclo[2.2.2]octan-2-yl)-6-chloro-2-(3-(dimethylamino)azetidin-1-yl)-8-fluoroquinazolin-7-yl)naphthalen-2-ol]
1.36	CN(C)C1CN(c2nc(N3C[C@H]4C[C@@H]3CN4)c3cc(Cl)c(-c4cc(O)cc5ccccc45)c(F)c3n2)C1 (single isomer, unassigned) [Compound 3a, (R or S)-4-(4-((1R,4R)-2,5-diazabicyclo [2.2.1]heptan-2-yl)-6-chloro-2-(3-(dimethylamino)azetidin-1-yl)-8-fluoro-quinazolin-7-yl)naphthalen-2-ol]
63.3	CN(C)C1CN(c2nc(N3C[C@H]4CC[C@@H](C3)N4)c3cc(Cl)c(-c4cc(O)cc5ccccc45)c(F)c3n2)C1 (single isomer, unassigned) [Compound 5b, (S or R)-4-(4-((1R,5S)-3,8 diazabicyclo [3.2.1]octan-3-yl)-6-chloro-2-(3-(dimethylamino)azetidin-1-yl)-8-fluoro-quinazolin-7-yl)naphthalen-2-ol]
81.6	CN(C)C1CN(c2nc(N3CC(N(C)C)C3)c3cc(Cl)c(-c4cc(O)cc5ccccc45)c(F)c3n2)C1 (single isomer, unassigned) [Compound 9a, (R or S)-4-(6-chloro-2,4-bis(3-(dimethylamino)azetidin-1-yl)-8-fluoro-7-yl)naphthalen-2-ol]
7.12	CN(C)C1CN(c2nc(N3CCC4(CCCN4)CC3)c3cc(Cl)c(-c4cc(O)cc5ccccc45)c(F)c3n2)C1 (single isomer, unassigned) [Compound 12a, (R or S)-4-(6-chloro-2-(3-(dimethylamino)azetidin-1-yl)-8-fluoro-4-(1,8-diazaspiro[4.5]decan-8-yl)quinazolin-7-yl)naphthalen-2-ol]
2.24	CN(C)C1CN(c2nc(N3C[C@H]4CNC[C@H]4C3)c3cc(Cl)c(-c4cc(O)cc5ccccc45)c(F)c3n2)C1 (single isomer, unassigned) [Compound 13a, (R or S)-4-(6-chloro-2-(3-(dimethylamino)azetidin-1-yl)-8-fluoro-4-((3aR,6aS)-hexahydro-pyrrolo[3,4-c]pyrrol-2 (1H)-yl)quinazolin-7-yl)naphthalen-2-ol]
9.49	CN(C)C1CN(c2nc(N3CC4CNCC4C3)c3cc(Cl)c(-c4cc(O)cc5ccccc45)c(F)c3n2)C1 (single isomer, unassigned) [Compound 14c, (R or S)-4-(6-chloro-2-(3-(dimethylamino)azetidin-1-yl)-8-fluoro-4-((3aR,6aR or 3aS,6aS)-hexahydro-pyrrolo[3,4-c]pyrrol-2(1H)-yl)quinazolin-7-yl)naphthalen-2-ol]
56.7	CN(C)C1CN(c2nc(N3CC4CNCC4C3)c3cc(Cl)c(-c4cc(O)cc5ccccc45)c(F)c3n2)C1 (single isomer, unassigned) [Compound 14d, (S or R)-4-(6-chloro-2-(3-(dimethylamino)azetidin-1-yl)-8-fluoro-4-((3aR,6aR or 3aS,6aS)-hexahydro-pyrrolo[3,4-c]pyrrol-2(1H)-yl)quinazolin-7-yl)naphthalen-2-ol]
1.35	CN(CCN)c1nc(N2CC(N(C)C)C2)nc2c(F)c(-c3cc(O)cc4ccccc34)c(Cl)cc12 (single isomer, unassigned) [Compound 15a, (R or S)-4-(4((2-aminoethyl) (methyl)-amino)-6-chloro-2-(3-(dimethylamino)azetidin-1-yl)-8-fluoroquinazolin-7-yl)naphthalen-2-ol]
3.49	CNCCN(C)c1nc(N2CC(N(C)C)C2)nc2c(F)c(-c3cc(O)cc4ccccc34)c(Cl)cc12 (single isomer, unassigned) [Compound 16a, (R or S)-4-(6-chloro-2-(3-(dimethylamino)azetidin-1-yl)-8-fluoro-4-(methyl(2-(methylamino)ethyl)amino)quinazolin-7-yl)naphthalen-2-ol]
1.23	CN(C)C1CN(c2nc(N3C[C@H]4CC[C@@H](C3)[C@@H]4N)c3cc(Cl)c(-c4cc(O)cc5ccccc45)c(F)c3n2)C1 (single isomer, unassigned) [Compound 30, (S or R)-4-(4-((1R,5S,8S)-8-amino-3-azabicyclo[3.2.1]octan-3-yl)-6-chloro-2-(3-(dimethylamino)azetidin-1-yl)-8-fluoroquinazolin-7-yl)naphthalen-2-ol]
